Assay results published in US11852634B2, “Use of AKT phosphorylation as a biomarker for prognosing neurodegenerative diseases and treating same” (Yeda Research and Development Co. Ltd., priority 2011, dated 2023).
Where no end group is shown, it is not given here.

Test system: healthy mice
Test: Repeated-dose safety in healthy mice
Format: in vivo
Conditions: dose four times higher than the effective dose, daily, for 28 days
Excerpt: Accordingly, the peptide of the invention is suitable for chronic use. In addition, the peptide of the invention was shown effective when administered intravenously (IV), intraperitoneally (IP) or in combination of these two modes of delivery.

## LPPLPYP [SEQ ID NO: 1, LPPLPYP]
  Side effects: did not initiate any detectable side effect
